Measurements: patent US20190300845A1, “SEQUENTIAL ADDITION OF MOLECULAR GERMINANTS TO BACTERIAL SPORES” (NOVOZYMES BIOAG A/S, priority 2016, published 2019)

Legend:
[1] = tested on: spores from Bacillus amyloliquefaciens strain SB3615; assay: Germinant testing by decrease in relative OD580
[2] = tested on: Bacillus subtilis strain SB3086 spores; assay: Sequential germinant addition, germination by dipicolinic acid (DPA) release (Tb-DPA fluorescence); assay type: cell-based
Method: Bacterial spores from Bacillus subtilis strain SB3086 were prepared as described in the first paragraph of Example 1. The spore preparations were washed in sterile 4° C. water by centrifugation (10,000×g, 1 minute), aspirating the supernatant from the pellet, and suspending the spore pellet in water. This was performed three consecutive times. Optical densities of washed spore preparations were measured in sterile water at 4° C. using a Synergy H4 Multi-Mode Reader (Bio-Tek). The spore preparations were set to 5 OD600 units per ml. By phase-contrast microscopy, 99% of the particles in the samples appeared to be ungerminated spores.
The spores were then treated with 1 mM of L-alanine for 24 hours at 4° C. […] In one experiment, spores that had been treated with 1 mM L-alanine for 24 hours were washed in water to remove the L-alanine. Negative controls were not treated with L-alanine. Spores to be used as positive controls were boiled for 2 hours to release dipicolinic acid (see below).
(§1) Germination of spores in these studies was determined by measuring dipicolinic acid (DPA). DPA is about 10% of the mass of endospores, which is generally released when germination occurs. Boiling spores generally releases all of the DPA (used as a positive control). DPA release was detected using terbium chloride (TbCl3), as described below.
(§2) To perform the germination assays, 30 μl of spores were added to wells of a 96-well flat-bottom microtiter plate. Subsequently, 35 μl of a 250 μM TbCl3 stock was added. At time 0, 85 μl of a D-fructose solution was added, to give a final concentration of 10 mM D-fructose. The solution was mixed by pipetting, the microtiter plate was placed into a plate reader (Synergy H4 Multi-Mode Reader, Bio-Tek), and the sample wells were measured for presence of a fluorescent Tb-DPA product over time. Tb-DPA is excited at 270 nm and emits at 545 nm. All experimental samples were tested in triplicate. Baseline controls for each sample were generated by omitting L-alanine and these were performed in duplicate. All sample wells were measured immediately after D-fructose was added (time 0) and then over time. For each time point, the data were normalized to values for the spores that had been boiled for two hours to force 100% release of DPA from the spores.

[3] = tested on: Bacillus pumilus strain SB3189 spores; assay: as above; assay type: cell-based
Method: as §1, §2
The experiment was generally performed as described in Example 3. SB3189 spores were treated with various concentrations of L-alanine (0.0 mM, 0.5 mM, 1.0 mM, 2.0 mM, 3.0 mM, 4.0 mM, 5.0 mM, 6.0 mM, 7.0 mM, 8.0 mM, 9.0 mM, or 10.0 mM) for 24 hours at 4° C. […] D-fructose (10 mM) was then added to the L-alanine-treated spores (this was time 0) and DPA levels were measured over time.

[4] = tested on: spores from Bacillus pumilus strain SB3189; assay: Germinant testing by decrease in relative OD580; assay type: cell-based; details: substance alone, at a concentration of 3 mM
[5] = tested on: spores from Bacillus megaterium strain SB3112; assay: Germinant testing by decrease in relative OD580; assay type: cell-based; details: amino acid along with KBr and D-glucose; each 3 mM
[6] = tested on: Bacillus megaterium strain SB3112 spores; assay: KBr pretreatment, germination by dipicolinic acid (DPA) release (Tlag, Gmax); assay type: cell-based
Method: as §1, §2
These studies were generally performed as described in Example 3. SB3112 spores, heat-activated or not heat-activated (not heat-activated are called “native”), were treated with 0.5, 3.0, or 10.0 mM KBr overnight at either 4° or 22° C. […] The time at which the subsequent addition was made to the spores was considered time 0. DPA concentration was measured over time.
To facilitate comparison of the different samples, values for Tlag and Gmax were calculated for each spore treatment. Tlag is the time after exposure to germinants that a population of spores begins to rapidly release DPA into the environment. Tlag indicates, in part, how rapidly a population of spores responds to germinants. Gmax is the maximum percentage of DPA that a sample releases during an experiment, divided by the DPA released by the sample when boiled. Gmax is proportional to the percentage of spores in a population that germinates.

C[C@H](N)C(=O)O [L-alanine]
Molecules causing germination ([1]; strain SB3615, each substance 3 mM): L-alanine
Germination of spores (decrease in relative OD580) ([1]; substance alone, 3 mM, heat-activated spores, 37° C., 70 minutes): could cause germination
Germination as a result of the L-alanine treatment, determined by microscopy ([2]; 1 mM L-alanine for 24 hours at 4° C., before D-fructose): No germination
Germination (DPA release) when D-fructose was added ([2]; L-alanine 24 hours, washed out prior to addition of D-fructose): did not germinate
Germination (DPA release) when D-fructose was added ([2]; spores treated with 1 mM L-alanine for 24 hours, then 10 mM D-fructose): germinated
Germination due to the L-alanine treatment, determined by microscopy ([3]; 0.5-10.0 mM L-alanine for 24 hours at 4° C., before D-fructose): no germination
Extent of germination versus amount of L-alanine ([3]; 0.5 to 10 mM L-alanine pretreatment, then 10 mM D-fructose): increased as the amount of L-alanine increased
Germination (DPA release) on addition of D-fructose ([3]; spores treated with L-alanine 24 hours, then D-fructose (10 mM) at time 0): caused germination
Germination of spores (decrease in relative OD580) [4]: None
Germination of spores (decrease in relative OD580) [5]: caused germination of the spores

N[C@@H](CS)C(=O)O [L-cysteine]
Germination of spores (decrease in relative OD580) [4]: None

[Br-].[K+] [KBr]
Gmax ([6]; heat-activated spores, 0.5 mM KBr overnight at 4° C. before full germinant solution): 92%
Gmax ([6]; heat-activated spores, 0.5 mM KBr overnight at 22° C. before full germinant solution): 65%
Gmax ([6]; heat-activated spores, 3.0 mM KBr overnight at 4° C. before full germinant solution): 123%
Gmax ([6]; heat-activated spores, 3.0 mM KBr overnight at 22° C. before full germinant solution): 65%
Gmax ([6]; heat-activated spores, 10.0 mM KBr overnight at 4° C. before full germinant solution): 85%
Gmax ([6]; heat-activated spores, 10.0 mM KBr overnight at 22° C. before full germinant solution): 61%
Gmax as compared to spores not pretreated with KBr ([6]; heat-treated spores, at 22° C., 0.5, 3.0, or 10.0 mM KBr): decreased
Percentage of spores that germinated (Gmax) as compared to spores not pretreated with KBr ([6]; native or heat-treated spores, at 4° C., 3.0 or 10.0 mM KBr): increased
Gmax ([6]; native spores, 0.5 mM KBr overnight at 4° C. before full germinant solution): 24%
Gmax ([6]; native spores, 0.5 mM KBr overnight at 22° C. before full germinant solution): 62%
Gmax ([6]; native spores, 3.0 mM KBr overnight at 4° C. before full germinant solution): 31%
Gmax ([6]; native spores, 3.0 mM KBr overnight at 22° C. before full germinant solution): 96%
Gmax ([6]; native spores, 10.0 mM KBr overnight at 4° C. before full germinant solution): 29%
Gmax ([6]; native spores, 10.0 mM KBr overnight at 22° C. before full germinant solution): 103%
Tlag as compared to spores not pretreated with KBr ([6]; some samples: 4° C. native spores 3.0 or 10.0 mM KBr, 22° C. heat-activated spores 0.5 mM KBr): different

N[C@@H](Cc1c[nH]cn1)C(=O)O [L-histidine]
Germination of spores (decrease in relative OD580) [5]: caused germination of the spores

N[C@@H](Cc1ccccc1)C(=O)O [L-phenylalanine]
Germination of spores (decrease in relative OD580) [5]: caused germination of the spores

CC(C)C[C@H](N)C(=O)O [L-leucine]
Germination of spores (decrease in relative OD580) [5]: caused germination of the spores

OC[C@H]1O[C@@](CO)(O[C@H]2O[C@H](CO)[C@@H](O)[C@H](O)[C@H]2O)[C@@H](O)[C@@H]1O [sucrose]
Germination of spores (decrease in relative OD580) [4]: None

O=C(CO)[C@@H](O)[C@H](O)[C@H](O)CO [D-fructose]
Germination (DPA release) with D-fructose ([2]; 10 mM D-fructose, spores not treated with L-alanine): did not germinate
Germination (DPA release) in presence of D-fructose ([3]; 10 mM D-fructose, spores not treated with L-alanine (0 mM)): did not germinate
Germination of spores (decrease in relative OD580) [4]: None

CC[C@H](C)[C@H](N)C(=O)O [L-isoleucine]
Germination of spores (decrease in relative OD580) [5]: caused germination of the spores

O=C(O)[C@@H]1CCCN1 [L-proline]
Germination of spores (decrease in relative OD580) [5]: caused germination of the spores
